Laboratory results taken from PubChem BioAssay AID256 (DTP/NCI, 2004).
“And” between values parts separate entries of the source, which are not always exact repeats. Equal values may be shown once. Toxic doses and inconclusive results are not listed. Rule for the calls: active = survival T/C of 150% or more; inactive = T/C below 125% in these data.

Tested on: CD2F1 mice, L1210 leukemia ip, survival T/C
Test: NCI In Vivo Anticancer Drug Screen. Data for tumor model L1210 Leukemia (intraperitoneal) in CD2F1 (CDF1) mice
Details: higher = longer survival
Summary of the method: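 Activity against a transplanted murine tumor was judged by comparing the compound group with a vehicle group. The outcome in the treated animals was divided by that in the controls.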

[1] = endpoint: mean survival time, dose: 50.0 mg/kg/injection, schedule: Q01DX009 (ip), vehicle: saline with Tween-80
[2] = endpoint: mean survival time, dose: 100.0 mg/kg/injection, schedule: Q01DX009 (ip), vehicle: saline with Tween-80
[3] = endpoint: mean survival time, dose: 200.0 mg/kg/injection, schedule: Q01DX009 (ip), vehicle: saline with Tween-80
[4] = endpoint: mean survival time, dose: 100.0 mg/kg/injection, schedule: Q04DX003 (ip), vehicle: saline with Tween-80
[5] = endpoint: mean survival time, dose: 200.0 mg/kg/injection, schedule: Q04DX003 (ip), vehicle: saline with Tween-80
[6] = endpoint: mean survival time, dose: 400.0 mg/kg/injection, schedule: Q04DX003 (ip), vehicle: saline with Tween-80
[7] = endpoint: mean survival time, dose: 100.0 mg/kg/injection, schedule: Q04DX002 (ip), vehicle: saline with Tween-80
[8] = endpoint: mean survival time, dose: 200.0 mg/kg/injection, schedule: Q04DX002 (ip), vehicle: saline with Tween-80
[9] = endpoint: mean survival time, dose: 400.0 mg/kg/injection, schedule: Q04DX002 (ip), vehicle: saline with Tween-80
[10] = endpoint: mean survival time, dose: 100.0 mg/kg/injection, schedule: Q01DX001 (ip), vehicle: saline with Tween-80
[11] = endpoint: mean survival time, dose: 200.0 mg/kg/injection, schedule: Q01DX001 (ip), vehicle: saline with Tween-80
[12] = endpoint: mean survival time, dose: 50.0 mg/kg/injection, schedule: Q01DX001 (ip), vehicle: saline with Tween-80
[13] = endpoint: mean survival time, dose: 6.25 mg/kg/injection, schedule: Q01DX009 (ip), vehicle: saline with Tween-80
[14] = endpoint: mean survival time, dose: 12.5 mg/kg/injection, schedule: Q01DX009 (ip), vehicle: saline with Tween-80
[15] = endpoint: mean survival time, dose: 25.0 mg/kg/injection, schedule: Q01DX009 (ip), vehicle: saline with Tween-80
[16] = endpoint: mean survival time, dose: 400.0 mg/kg/injection, schedule: Q01DX009 (ip), vehicle: saline with Tween-80

Measured: T/C

COc1cc(C=C(C(C)=O)C(C)=O)ccc1O
inactive: [1] 98 % of control | [2] 101 % of control | [3] 98 % of control

CCCCCn1c(CN2CCCCC2)nc2c1-c1ccccc1C(=O)C2=O
inactive: [4] 96 % of control | [5] 103 % of control | [6] 103 % of control

C=C(C)CNC1=C(C)C(=O)C2=C(C1=O)[C@@H](COC(N)=O)[C@]1(OC)[C@@H]3N[C@@H]3CN21
inactive: endpoint: mean survival time, dose: 1.5 mg/kg/injection, schedule: Q01DX001 (ip), vehicle: water 97 % of control | endpoint: mean survival time, dose: 3.0 mg/kg/injection, schedule: Q01DX001 (ip), vehicle: water 103 % of control | endpoint: mean survival time, dose: 6.0 mg/kg/injection, schedule: Q01DX001 (ip), vehicle: distilled water + Tween-80 104 % of control | endpoint: mean survival time, dose: 6.0 mg/kg/injection, schedule: Q01DX001 (ip), vehicle: water 103 % of control | endpoint: mean survival time, dose: 12.0 mg/kg/injection, schedule: Q01DX001 (ip), vehicle: distilled water + Tween-80 114 % of control | endpoint: mean survival time, dose: 12.0 mg/kg/injection, schedule: Q01DX001 (ip), vehicle: water 108 % of control | endpoint: mean survival time, dose: 48.0 mg/kg/injection, schedule: Q01DX001 (ip), vehicle: distilled water + Tween-80 108 % of control

O=C1OC(=O)C2C(c3ccccc3)=C3C(=C(c4ccccc4)C12)c1cccc2cccc3c12 (configuration not stated)
inactive: [7] 94 % of control | [8] 97 % of control | [9] 94 % of control

O=[N+]([O-])c1ccc(N/N=C\c2ccc3ccccc3n2)cc1
inactive: endpoint: mean survival time, dose: 100.0 mg/kg/injection, schedule: Q04DX003 (ip), vehicle: saline 106 % of control | endpoint: mean survival time, dose: 200.0 mg/kg/injection, schedule: Q04DX003 (ip), vehicle: saline 109 % of control | endpoint: mean survival time, dose: 400.0 mg/kg/injection, schedule: Q04DX003 (ip), vehicle: saline 101 % of control

CS(=O)(=O)CC1C2CCC(CC2)C1CS(C)(=O)=O (configuration not stated)
inactive: [10] 93 % of control | [11] 106 % of control | endpoint: mean survival time, dose: 400.0 mg/kg/injection, schedule: Q01DX001 (ip), vehicle: saline with Tween-80 92 % of control

CC(C)c1cc(O)ccc1N(C)C (tested in a mixture with another compound)
inactive: endpoint: mean survival time, dose: 32.0 micrograms/kg/injection, schedule: Q04DX003 (ip), vehicle: saline 102 % of control | endpoint: mean survival time, dose: 63.0 micrograms/kg/injection, schedule: Q01DX001 (ip), vehicle: saline 98 % of control | endpoint: mean survival time, dose: 63.0 micrograms/kg/injection, schedule: Q04DX003 (ip), vehicle: saline 101 % of control | endpoint: mean survival time, dose: 125.0 micrograms/kg/injection, schedule: Q01DX001 (ip), vehicle: saline 98 % of control | endpoint: mean survival time, dose: 125.0 micrograms/kg/injection, schedule: Q04DX003 (ip), vehicle: saline 90 % of control

N#CCCCN1CCOCC1
inactive: endpoint: mean survival time, dose: 100.0 mg/kg/injection, schedule: Q01DX009 (ip), vehicle: saline 101 % of control | endpoint: mean survival time, dose: 200.0 mg/kg/injection, schedule: Q01DX009 (ip), vehicle: saline 102 % of control | endpoint: mean survival time, dose: 400.0 mg/kg/injection, schedule: Q01DX009 (ip), vehicle: saline 98 % of control

CSC/C(=N\Nc1ccc([N+](=O)[O-])cc1[N+](=O)[O-])c1ccccc1
inactive: [12] 98 % of control | [10] 93 % of control | [11] 90 % of control

CC(C)(C)OC(=O)NNC(c1ccccc1)c1ccccc1
inactive: [2] 101 % of control | [4] 98 % of control | [3] 95 % of control | [5] 95 % of control | [6] 97 % of control

O=P(Nc1ccccc1)(OCc1ccccc1)N(CCCl)CCCl (configuration not stated)
inactive: endpoint: mean survival time, dose: 62.5 mg/kg/injection, schedule: Q01DX010 (ip), vehicle: saline 104 % of control | endpoint: mean survival time, dose: 125.0 mg/kg/injection, schedule: Q01DX010 (ip), vehicle: saline 103 % of control | endpoint: mean survival time, dose: 250.0 mg/kg/injection, schedule: Q01DX010 (ip), vehicle: saline 101 % of control

CC(=O)NC(C)C(=O)NC1C(C)OC(=O)C2=C(O)CC(O)C(O)C21 (configuration not stated)
inactive: [4] 92 % of control | [5] 100 % of control | [6] 97 % of control

CN(C)C(=O)Nc1nc2ccccc2s1
inactive: endpoint: mean survival time, dose: 25.0 mg/kg/injection, schedule: Q04DX002 (ip), vehicle: saline with Tween-80 103 % of control | endpoint: mean survival time, dose: 50.0 mg/kg/injection, schedule: Q04DX002 (ip), vehicle: saline with Tween-80 95 % of control | [7] 115 % of control and 93 % of control | [9] 90 % of control

NN(C(=O)c1ccc(Cl)cc1)c1ccccc1
inactive: [4] 95 % of control | [5] 92 % of control | [6] 97 % of control

CC1(C)OCC2OC=CC(=O)C2O1 (configuration not stated)
inactive: endpoint: median survival time, dose: 25.0 mg/kg/injection, schedule: Q01DX009 (ip), vehicle: suspension in saline 94 % of control | endpoint: median survival time, dose: 50.0 mg/kg/injection, schedule: Q01DX009 (ip), vehicle: suspension in saline 103 % of control | endpoint: median survival time, dose: 100.0 mg/kg/injection, schedule: Q01DX009 (ip), vehicle: suspension in saline 101 % of control | endpoint: median survival time, dose: 200.0 mg/kg/injection, schedule: Q01DX009 (ip), vehicle: suspension in saline 97 % of control | endpoint: median survival time, dose: 400.0 mg/kg/injection, schedule: Q01DX009 (ip), vehicle: suspension in saline 104 % of control

O=C(/C=C/c1ccccc1)c1cccc([N+](=O)[O-])c1
inactive: [7] 91 % of control | [8] 91 % of control | [9] 95 % of control

CCCCCCCCCCCCCCC(=O)O.[Pb]
inactive: endpoint: mean survival time, dose: 75.0 mg/kg/injection, schedule: Q01DX001 (ip), vehicle: other 103 % of control | endpoint: mean survival time, dose: 150.0 mg/kg/injection, schedule: Q01DX001 (ip), vehicle: other 103 % of control | endpoint: mean survival time, dose: 300.0 mg/kg/injection, schedule: Q01DX001 (ip), vehicle: other 98 % of control

CN1CCCN(C)C1c1cc(Cl)ccc1O
inactive: [13] 98 % of control | [14] 98 % of control | [15] 98 % of control | [4] 103 % of control | [5] 121 % of control | [6] 95 % of control

COc1ccc([I+]c2ccccc2)cc1
inactive: endpoint: mean survival time, dose: 2.5 mg/kg/injection, schedule: Q01DX009 (ip), vehicle: saline sonified 102 % of control | endpoint: mean survival time, dose: 2.5 mg/kg/injection, schedule: Q04DX003 (ip), vehicle: saline with Tween-80 106 % of control | endpoint: mean survival time, dose: 5.0 mg/kg/injection, schedule: Q01DX009 (ip), vehicle: saline sonified 106 % of control | endpoint: mean survival time, dose: 5.0 mg/kg/injection, schedule: Q04DX003 (ip), vehicle: saline with Tween-80 98 % of control | [13] 95 % of control | endpoint: mean survival time, dose: 6.25 mg/kg/injection, schedule: Q04DX003 (ip), vehicle: saline with Tween-80 93 % of control | endpoint: mean survival time, dose: 10.0 mg/kg/injection, schedule: Q01DX009 (ip), vehicle: saline sonified 95 % of control | endpoint: mean survival time, dose: 10.0 mg/kg/injection, schedule: Q04DX003 (ip), vehicle: saline with Tween-80 104 % of control | [14] 118 % of control | endpoint: mean survival time, dose: 12.5 mg/kg/injection, schedule: Q04DX003 (ip), vehicle: saline with Tween-80 92 % of control | [15] 120 % of control | endpoint: mean survival time, dose: 25.0 mg/kg/injection, schedule: Q04DX003 (ip), vehicle: saline with Tween-80 104 % of control

Cc1ccc(Sc2ccc([N+](=O)[O-])cc2)cc1
inactive: [2] 96 % of control | [4] 100 % of control | [3] 102 % of control | [5] 100 % of control | [16] 96 % of control | [6] 91 % of control

CC1=CC(=O)C=C/C1=N/S(=O)(=O)c1ccccc1
inactive: endpoint: mean survival time, dose: 25.0 mg/kg/injection, schedule: Q01DX001 (ip), vehicle: saline with Tween-80 93 % of control | [12] 90 % of control | [10] 97 % of control

CC(C)C(=O)C1CCCCC1
inactive: [1] 103 % of control | [2] 95 % of control | [3] 95 % of control

O=c1n(-c2ccccc2)c(=O)n2n1C1C=CC2C2CC2/C=C\1 (configuration not stated)
inactive: endpoint: median survival time, dose: 50.0 mg/kg/injection, schedule: Q04DX002 (ip), vehicle: saline with Tween-80 112 % of control | endpoint: median survival time, dose: 100.0 mg/kg/injection, schedule: Q04DX002 (ip), vehicle: saline with Tween-80 112 % of control | endpoint: median survival time, dose: 200.0 mg/kg/injection, schedule: Q04DX002 (ip), vehicle: saline with Tween-80 87 % of control

COc1ccc(C2C3C=CC(C3)C2C(=O)O)cc1 (configuration not stated)
inactive: [2] 96 % of control | [4] 106 % of control | [3] 96 % of control | [5] 103 % of control | [16] 103 % of control | [6] 95 % of control

COC1(OC)C2C=CC1CC2
inactive: [14] 105 % of control | [15] 100 % of control | [1] 109 % of control | [2] 103 % of control | [3] 103 % of control | [16] 114 % of control
